From article PMC12487869, “Toward Imaging of the GABA Transporter Type 1 In Vivo: Quantitative Evaluation of 4 Novel PET Radiotracers in Nonhuman Primates” (Journal of Nuclear Medicine, 2025)

Experiment: Metabolite analysis of arterial plasma (unmetabolized parent fraction), column-switching HPLC
Format: in vivo, rhesus monkeys (Macaca mulatta)
Details: mean ± SD
Protocol: Arterial blood samples were collected for each scan to measure the input function. Metabolite analysis was performed using an automatic column-switching high-performance liquid chromatography system ([22]) for 7 arterial blood samples collected at 5, 15, 30, 60, 90, 120, and 180 min. The radiometabolite-corrected arterial plasma input function was obtained by calculating the product of the fitted total plasma (fitted with a sum of exponentials) and unmetabolized parent fraction curves (using an integrated γ-function ([23])).

SMILES: Cc1ccccc1C(=CCCN1CCCC(C(=O)O)C1)c1ccccc1[18F] (centres unmarked) [^18F-GATT-44]
- Parent compound (30 min): 88 ± 4%
- Parent compound (90 min): 83 ± 6%
